Experimental data taken from the NIST ThermoML archive (doi:10.1021/je3007474).
± gives the expanded uncertainty stated by the source.

Key:
[1] = 101 kPa, Liquid; for viscosity: Falling or rolling sphere viscometry; for mass density: Vibrating tube method
[2] = xn = mol fraction of the nth substance listed; conditions: 101 kPa, Liquid, x2 = 0; for viscosity: Falling or rolling sphere viscometry; for mass density: Vibrating tube method

Row | Compound | viscosity ([1]; 298.15 K) | mass density ([1]; 298.15 K) | viscosity ([1]; 303.15 K) | mass density ([1]; 303.15 K) | viscosity ([1]; 313.15 K) | mass density ([1]; 313.15 K) | viscosity ([1]; 323.15 K) | mass density ([1]; 323.15 K) | viscosity ([1]; 333.15 K) | mass density ([1]; 333.15 K) | viscosity ([1]; 343.15 K) | mass density ([1]; 343.15 K) | viscosity ([1]; 353.15 K) | mass density ([1]; 353.15 K) | viscosity ([2]; 298.15 K) | mass density ([2]; 298.15 K) | viscosity ([2]; 303.15 K) | mass density ([2]; 303.15 K) | viscosity ([2]; 313.15 K) | mass density ([2]; 313.15 K) | also measured
1 | CCCCn1cc[n+](C)c1C.F[B-](F)(F)F [1-butyl-2,3-dimethylimidazolium tetrafluoroborate] | 650 ± 56 mPa·s | 1193.19 ± 0.12 kg/m3 | 447 ± 33 mPa·s | 1189.8 ± 0.12 kg/m3 | 232.9 ± 12 mPa·s | 1183.02 ± 0.11 kg/m3 | 132.8 ± 4.4 mPa·s | 1176.38 ± 0.11 kg/m3 | 81.53 ± 1.5 mPa·s | 1169.82 ± 0.11 kg/m3 | 53.99 ± 0.56 mPa·s | 1163.26 ± 0.11 kg/m3 | 37.13 ± 0.46 mPa·s | 1156.71 ± 0.1 kg/m3 |  |  |  |  |  |  | 
2 | CC#N [acetonitrile] | 0.37 ± 0.005 mPa·s | 776.55 ± 0.15 kg/m3 | 0.354 ± 0.004 mPa·s | 771.13 ± 0.15 kg/m3 | 0.327 ± 0.004 mPa·s | 760.18 ± 0.15 kg/m3 | 0.302 ± 0.004 mPa·s | 749.11 ± 0.16 kg/m3 | 0.281 ± 0.004 mPa·s | 737.86 ± 0.16 kg/m3 | 0.262 ± 0.003 mPa·s | 726.43 ± 0.17 kg/m3 |  |  |  |  |  |  |  |  | 
3 | CC#N [acetonitrile] + CCCCn1cc[n+](C)c1C.F[B-](F)(F)F |  |  |  |  |  |  |  |  |  |  |  |  |  |  | 0.37 ± 0.005 mPa·s | 776.55 ± 0.15 kg/m3 | 0.354 ± 0.004 mPa·s | 771.13 ± 0.15 kg/m3 | 0.327 ± 0.004 mPa·s | 760.18 ± 0.15 kg/m3 | viscosity ([2]; 323.15 K): 0.302 ± 0.004 mPa·s; mass density ([2]; 323.15 K): 749.11 ± 0.16 kg/m3; viscosity ([2]; 333.15 K): 0.281 ± 0.004 mPa·s; mass density ([2]; 333.15 K): 737.86 ± 0.16 kg/m3; viscosity ([2]; 343.15 K): 0.262 ± 0.003 mPa·s; mass density ([2]; 343.15 K): 726.43 ± 0.17 kg/m3
4 | C[S+](C)[O-] [dimethyl sulfoxide] | 2.012 ± 0.025 mPa·s | 1095.74 ± 0.07 kg/m3 | 1.843 ± 0.023 mPa·s | 1090.73 ± 0.07 kg/m3 | 1.556 ± 0.019 mPa·s | 1080.69 ± 0.07 kg/m3 | 1.337 ± 0.016 mPa·s | 1070.66 ± 0.06 kg/m3 | 1.165 ± 0.014 mPa·s | 1060.63 ± 0.06 kg/m3 | 1.028 ± 0.013 mPa·s | 1050.58 ± 0.06 kg/m3 | 0.917 ± 0.011 mPa·s | 1040.51 ± 0.05 kg/m3 |  |  |  |  |  |  | 
5 | C[S+](C)[O-] [dimethyl sulfoxide] + CCCCn1cc[n+](C)c1C.F[B-](F)(F)F |  |  |  |  |  |  |  |  |  |  |  |  |  |  | 2.012 ± 0.025 mPa·s | 1095.74 ± 0.07 kg/m3 | 1.843 ± 0.023 mPa·s | 1090.73 ± 0.07 kg/m3 | 1.556 ± 0.019 mPa·s | 1080.69 ± 0.07 kg/m3 | viscosity ([2]; 323.15 K): 1.337 ± 0.016 mPa·s; mass density ([2]; 323.15 K): 1070.66 ± 0.06 kg/m3; viscosity ([2]; 333.15 K): 1.165 ± 0.014 mPa·s; mass density ([2]; 333.15 K): 1060.63 ± 0.06 kg/m3; viscosity ([2]; 343.15 K): 1.028 ± 0.013 mPa·s; mass density ([2]; 343.15 K): 1050.58 ± 0.06 kg/m3; viscosity ([2]; 353.15 K): 0.917 ± 0.011 mPa·s; mass density ([2]; 353.15 K): 1040.51 ± 0.05 kg/m3
